Data as given in PMC6006164, “Natural cyclopeptide RA-V inhibits the NF-κB signaling pathway by targeting TAK1” (Cell Death & Disease, 2018).

What was measured:
[1] = system: HEK293T and HeLa cells; assay: MTT assay; assay type: cell-based; conditions: under reporter-assay treatment, high concentrations
Description: Fig. 1 RA-V inhibits TNF-α- and LPS-induced activation of NF-κB. a Chemical structure of RA-V. b RA-V inhibited the NF-κB signaling pathway in a dose-dependent manner. HEK293T or HeLa cells were transfected with the 5 × κB-luciferase and pTK-Renilla reporters. Twenty-four hours after transfection, the cells were incubated with various concentrations of RA-V for 6 h, and then treated with 10 ng/mL TNF-α for 2 h before the luciferase activity assay and MTT assay. c RA-V reduced TNF-α-induced expression of NF-κB target genes. HEK293T or HeLa cells were treated with various concentrations of RA-V for 24 h and stimulated with 10 ng/mL TNF-α for 2 h. The expression of the NF-κB target genes, IL-8, MCP-1, and E-selectin was measured by quantitative RT-PCR and normalized to GADPH expression. d RA-V inhibited TNF-α-induced p65 phosphorylation, IκBα phosphorylation and IκBα degradation. […] The expression of IL-6 was measured. h RA-V inhibited LPS-induced p65 phosphorylation, IκBα phosphorylation. […] The protein expression was measured. i RA-V inhibited LPS-induced IL-6 production. […] The expression of IL-6 was measured.
HEK293T cells (5 × 10^3 cells/well) or HeLa cells (3 × 10^3 cells/well) were seeded in a 96-well plate with 100 μL medium and cultured for 12 h in a CO2 incubator. […] After 4 h, the medium was replaced with 150 μL DMSO, and the optical density was measured at […] (Molecular Devices). […]

[2] = system: p65 phosphorylation and IκBα phosphorylation; assay: Western blot in HEK293T cells transfected with TRAF2, MyD88 or IKKβ; assay type: cell-based; conditions: RA-V 48 h
Description: To determine where RA-V acts in this pathway, TRAF2, MyD88, IKKβ, or p65 plasmid was transiently transfected into HEK293T cells together with the 5 × κB-lucieferase and pTK-Renilla reporters. […] Western blots were performed to investigate the effect of RA-V on NF-κB-associated proteins in HEK293T cells transfected with the TRAF2, MyD88, or IKKβ plasmid. […] Moreover, we used a computational method to predict where RA-V is likely to act in this pathway.
Fig. 3 RA-V represses NF-κB activation upstream of the IKK protein complex. a RA-V inhibited the TRAF2- and MyD88-induced expression of the NF-κB reporter in a dose-dependent manner. The indicated plasmids were transfected into HEK293T cells together with the 5 × κB-luciferase and pTK-Renilla reporters. Twenty-four hours after transfection, the cells were incubated with various concentrations of RA-V for 48 h before luciferase assays were performed. b RA-V inhibited TRAF2- and MyD88-induced p65 phosphorylation and IκBα phosphorylation in a dose-dependent manner. […]
For western blot analysis, the samples were equally subjected to sodium dodecyl sulfate polyacrylamide gel electrophoresis (SDS-PAGE) and transferred to polyvinylidene difluoride membranes (Millipore). […] The protein bands were detected with the SuperSignal West Pico Chemiluminescent Substrate (Pierce).

In the case of RA-V, the “antiproliferative effect (MTT)” value [1] is reported as “only a slight antiproliferative effect”, the “p65 and IκBα phosphorylation in cells transfected with IKKβ plasmid” value [2] is reported as “no effect” and the “p65 phosphorylation and IκBα phosphorylation in cells overexpressing TRAF2 or MyD88” value [2] is reported as “dose-dependently inhibited”.
